BigSolDB 2.1

O=C1OC(=O)[C@H]2[C@@H]1[C@@H]1C=C[C@H]2C1
solubility (mole fraction)
Conditions | 278.15 K | 283.15 K | 288.15 K | 293.15 K | 298.15 K | 303.15 K | 308.15 K | 313.15 K | 318.15 K | 323.15 K
in 1,4-dioxane | – | – | 0.0718 | 0.0836 | 0.0939 | 0.107 | 0.123 | 0.136 | 0.154 | 0.173
in DMF | 0.0809 | 0.0925 | 0.106 | 0.12 | 0.135 | 0.152 | 0.171 | 0.186 | 0.208 | 0.23
in NMP | 0.112 | 0.126 | 0.14 | 0.156 | 0.172 | 0.19 | 0.209 | 0.225 | 0.245 | 0.265
in acetone | 0.0395 | 0.0475 | 0.0559 | 0.0658 | 0.0776 | 0.0897 | 0.106 | 0.121 | 0.138 | 0.155
in ethanol | 0.00216 | 0.00264 | 0.00354 | 0.00441 | 0.0056 | 0.00699 | 0.00872 | 0.0109 | 0.0135 | 0.0168
in ethyl acetate | 0.0293 | 0.0338 | 0.0413 | 0.0484 | 0.0535 | 0.0632 | 0.0737 | 0.0838 | 0.0969 | 0.11
in isobutyl acetate | 0.0199 | 0.0236 | 0.0284 | 0.0341 | 0.0396 | 0.0468 | 0.0552 | 0.0636 | 0.0741 | 0.0848
in isopropyl acetate | 0.021 | 0.0258 | 0.03 | 0.0357 | 0.0417 | 0.0489 | 0.0569 | 0.0661 | 0.0768 | 0.0878
in methanol | 0.00403 | 0.00504 | 0.00635 | 0.00781 | 0.0101 | 0.0126 | 0.0157 | 0.0201 | 0.0246 | 0.0311
in methyl acetate | 0.0358 | 0.0425 | 0.0485 | 0.0562 | 0.0644 | 0.0754 | 0.0851 | 0.0973 | 0.11 | 0.125
in n-butyl acetate | 0.0216 | 0.0259 | 0.031 | 0.0367 | 0.0428 | 0.0505 | 0.0587 | 0.0683 | 0.0788 | 0.0908
in n-pentyl acetate | 0.0192 | 0.0231 | 0.0276 | 0.0327 | 0.0388 | 0.0455 | 0.0535 | 0.0626 | 0.0726 | 0.0837
in n-propyl acetate | 0.0249 | 0.0303 | 0.0357 | 0.0414 | 0.0486 | 0.0565 | 0.0661 | 0.0761 | 0.0878 | 0.101
